Experimental data as given in patent publication US8557763B2, “Synthetic peptides that enhance tight junction permeability” (Alba Therapeutics Corporation, priority 2007, dated 2013).
Where no end group is shown, it is not given here. [ ]: non-standard residue; d: D form. dAllylGly = C=CC[C@@H](N)C(=O)O; AllylGly = C=CC[C@H](N)C(=O)O

How the values were obtained:
[1] = tested on: CaCo2 monolayers; assay: Lucifer Yellow (LY) permeability assay through CaCo2 monolayers; type: cell-based; design: key to Enhanced LY permeability: + indicates an enhancement of the permeability of the tight junctions were observed; − indicates no enhancement of permeability was observed; conditions: for Enhanced LY permeability: CaCo2 monolayers, Lucifer Yellow flux
Text: (§1) Agonists of tight junctions can be identified by their ability to enhance the flux of compounds (e.g. ions, Lucifer Yellow) through a cell monolayer that comprises tight junctions; or by their ability to reduce TEER across a cell monolayer that comprises tight junctions. Treatment of CaCo2 monolayers with peptide FCIGRL (SEQ ID NO: 1) led to a 51-fold enhancement of Lucifer Yellow permeability through CaCo2 monolayers compared to vehicle alone.
(§2) Tight junction agonists can be identified and tested using the following method:
(§3) Determination of TEER and Lucifer Yellow Flux
(§4) Prepare Modified Hank's Balanced Salt Solution (MHBSS) by obtaining 1 L bottle of HBSS removing 10 ml of HBSS and replacing it with 10 ml HEPES buffer pH 7.0. Adjust pH to 7.4±0.1 using concentrated NaOH (10N).
(§5) Remove CaCo-2 cells from incubator, grown on 12-well, 3.0 μM, polycarbonate Transwell® filters (Corning) and record passage#, date cells seeded and age in days.
(§6) Aspirate cell culture medium from both the apical (AP) and basolateral (BL) compartments, replacing with 0.5 ml and 1.5 ml of MHBSS, respectively. Incubate cells at 37° C. for 30 minutes.
(§7) Aspirate solution from the apical compartment of each filter (n=3 per condition) and replace with 0.5 ml of control and test solutions containing Lucifer Yellow and test compound if appropriate.
(§8) Place all plates into incubator set at 37° C. (±0.2), 50 RPM (±5) for a total of 180 minutes.
At t=60, 120 and 180 minutes remove […] from each basolateral compartment and place it in a 96-well plate for Lucifer Yellow analysis, replace with 100 μl of MHBSS.
Make a Lucifer Yellow standard curve with the following dilutions (7500 μM, 3750 μM, 750 μM, 375 μM, 37.5 μM, 7.5 μM, 3.75 μM, 0.75 μM) and pipette 100 μL of each into a 96-well plate except for the first three standards mentioned above which require a 1:10 dilutions prior to transferring to the 96-well plate.
Harvest the remaining start solutions and what is left in each apical compartment into 1.5 ml vials. Freeze at −20° C. for future analysis.
Analyze each 96-well plate in a Tecan Spectra Fluor Plus using Magellan at 485 and 535 nm.
(§9) Cells: CaCo-2 cells passage 40-60 grown on Transwell® plates for 21-28 days
(§10) Culture Medium: DMEM supplemented with 10% fetal bovine serum, 1% NEAA, 1% Penn/Strep
(§11) Buffers: Hank's Balanced Salt Solution (HBSS) without calcium and magnesium
(§12) Flasks: 100×20 mm Tissue culture dish Falcon.
(§13) Plates: 12 well polycarbonate Transwell® filters; 0.3 uM pore size

[2] = tested on: CaCo2 monolayers; assay: Trans Epithelial Electric Resistance (TEER) across CaCo2 monolayers; type: cell-based; design: key to Reduced TEER: + indicates an enhancement of the permeability of the tight junctions were observed; − indicates no enhancement of permeability was observed; conditions: for Reduced TEER: CaCo2 monolayers
Text: as §1
Treatment of CaCo2 monolayers with peptide FCIGRL led to a 16-fold decrease in TEER across CaCo2 monolayers compared to vehicle alone.
as §2, §3, §4, §5, §6
Using the MilliCell®-ERS instrument (Millipore), measure and record the transepithelial electrical resistance (TEER) across each filter and record.
as §7, §8
At t=30, 60, 120 and 180 minutes, measure and record the transepithelial electrical resistance (TEER) across each filter using the MilliCell-ERS instrument.
as §9, §10, §11, §12, §13

Row | Substance | Enhanced LY permeability [1] | Reduced TEER [2] | enhancement of Lucifer Yellow permeability through CaCo2 monolayers ([1]; compared to vehicle alone) | decrease in TEER across CaCo2 monolayers ([2]; compared to vehicle alone)
1 | 28 (F[AllylGly]VGRL-NH2; N-terminus assumed; SMILES C=CC[C@H](NC(=O)[C@@H](N)Cc1ccccc1)C(=O)N[C@H](C(=O)NCC(=O)N[C@@H](CCCNC(=N)N)C(=O)N[C@@H](CC(C)C)C(N)=O)C(C)C) [compound 28] | − | − |  | 
2 | 4 (F[dAllylGly]IGR-NH2; N-terminus assumed; SMILES C=CC[C@@H](NC(=O)[C@@H](N)Cc1ccccc1)C(=O)N[C@H](C(=O)NCC(=O)N[C@@H](CCCNC(=N)N)C(N)=O)[C@@H](C)CC) [compound 4] | − | − |  | 
3 | 52 (F[AllylGly]INRL-NH2; N-terminus assumed; SMILES C=CC[C@H](NC(=O)[C@@H](N)Cc1ccccc1)C(=O)N[C@H](C(=O)N[C@@H](CC(N)=O)C(=O)N[C@@H](CCCNC(=N)N)C(=O)N[C@@H](CC(C)C)C(N)=O)[C@@H](C)CC) [compound 52] | + | + |  | 
4 | 36 (F[AllylGly]KGRL-NH2; N-terminus assumed; SMILES C=CC[C@H](NC(=O)[C@@H](N)Cc1ccccc1)C(=O)N[C@@H](CCCCN)C(=O)NCC(=O)N[C@@H](CCCNC(=N)N)C(=O)N[C@@H](CC(C)C)C(N)=O) [compound 36] | + | + |  | 
5 | 89 (FXIGRP-NH2; not fully specified (residue 2); printed as Phe−Allylaly−Ile−Gly−Arg−Pro−NH2) [compound 89] | − | − |  | 
6 | 57 (F[AllylGly]IGEL-NH2; N-terminus assumed; SMILES C=CC[C@H](NC(=O)[C@@H](N)Cc1ccccc1)C(=O)N[C@H](C(=O)NCC(=O)N[C@@H](CCC(=O)O)C(=O)N[C@@H](CC(C)C)C(N)=O)[C@@H](C)CC) [compound 57] | − | − |  | 
7 | 30 (F[AllylGly]AGRL-NH2; N-terminus assumed; SMILES C=CC[C@H](NC(=O)[C@@H](N)Cc1ccccc1)C(=O)N[C@@H](C)C(=O)NCC(=O)N[C@@H](CCCNC(=N)N)C(=O)N[C@@H](CC(C)C)C(N)=O) [compound 30] | + | + |  | 
8 | FCIGRL [SEQ ID NO: 1, Phe−Cys−Ile−Gly−Arg−Leu, reference compound] |  |  | 51 fold | 16 fold
9 | 33 (F[AllylGly]EGRL-NH2; N-terminus assumed; SMILES C=CC[C@H](NC(=O)[C@@H](N)Cc1ccccc1)C(=O)N[C@@H](CCC(=O)O)C(=O)NCC(=O)N[C@@H](CCCNC(=N)N)C(=O)N[C@@H](CC(C)C)C(N)=O) [compound 33] | + | + |  | 
10 | 88 (F[AllylGly]IGRW-NH2; N-terminus assumed; SMILES C=CC[C@H](NC(=O)[C@@H](N)Cc1ccccc1)C(=O)N[C@H](C(=O)NCC(=O)N[C@@H](CCCNC(=N)N)C(=O)N[C@@H](Cc1c[nH]c2ccccc12)C(N)=O)[C@@H](C)CC) [compound 88] | + | + |  | 
11 | 7 (L[AllylGly]IGRL-NH2; N-terminus assumed; SMILES C=CC[C@H](NC(=O)[C@@H](N)CC(C)C)C(=O)N[C@H](C(=O)NCC(=O)N[C@@H](CCCNC(=N)N)C(=O)N[C@@H](CC(C)C)C(N)=O)[C@@H](C)CC) [compound 7] | + | − |  | 
12 | 31 (F[AllylGly]HGRL-NH2; N-terminus assumed; SMILES C=CC[C@H](NC(=O)[C@@H](N)Cc1ccccc1)C(=O)N[C@@H](Cc1c[nH]cn1)C(=O)NCC(=O)N[C@@H](CCCNC(=N)N)C(=O)N[C@@H](CC(C)C)C(N)=O) [compound 31] | + | + |  | 
13 | 47 (F[AllylGly]IERL-NH2; N-terminus assumed; SMILES C=CC[C@H](NC(=O)[C@@H](N)Cc1ccccc1)C(=O)N[C@H](C(=O)N[C@@H](CCC(=O)O)C(=O)N[C@@H](CCCNC(=N)N)C(=O)N[C@@H](CC(C)C)C(N)=O)[C@@H](C)CC) [compound 47] | + | + |  | 
14 | 74 (F[AllylGly]IGRD-NH2; N-terminus assumed; SMILES C=CC[C@H](NC(=O)[C@@H](N)Cc1ccccc1)C(=O)N[C@H](C(=O)NCC(=O)N[C@@H](CCCNC(=N)N)C(=O)N[C@@H](CC(=O)O)C(N)=O)[C@@H](C)CC) [compound 74] | + | + |  | 
15 | 11 (V[AllylGly]IGRL-NH2; N-terminus assumed; SMILES C=CC[C@H](NC(=O)[C@@H](N)C(C)C)C(=O)N[C@H](C(=O)NCC(=O)N[C@@H](CCCNC(=N)N)C(=O)N[C@@H](CC(C)C)C(N)=O)[C@@H](C)CC) [compound 11] | − | − |  | 
16 | 25 (F[AllylGly]LGRL-NH2; N-terminus assumed; SMILES C=CC[C@H](NC(=O)[C@@H](N)Cc1ccccc1)C(=O)N[C@@H](CC(C)C)C(=O)NCC(=O)N[C@@H](CCCNC(=N)N)C(=O)N[C@@H](CC(C)C)C(N)=O) [compound 25] | + | + |  | 
17 | 77 (F[AllylGly]IGRA-NH2; N-terminus assumed; SMILES C=CC[C@H](NC(=O)[C@@H](N)Cc1ccccc1)C(=O)N[C@H](C(=O)NCC(=O)N[C@@H](CCCNC(=N)N)C(=O)N[C@@H](C)C(N)=O)[C@@H](C)CC) [compound 77] | + | − |  | 
18 | 8 (S[AllylGly]IGRL-NH2; N-terminus assumed; SMILES C=CC[C@H](NC(=O)[C@@H](N)CO)C(=O)N[C@H](C(=O)NCC(=O)N[C@@H](CCCNC(=N)N)C(=O)N[C@@H](CC(C)C)C(N)=O)[C@@H](C)CC) [compound 8] | − | − |  | 
19 | 42 (F[AllylGly]IARL-NH2; N-terminus assumed; SMILES C=CC[C@H](NC(=O)[C@@H](N)Cc1ccccc1)C(=O)N[C@H](C(=O)N[C@@H](C)C(=O)N[C@@H](CCCNC(=N)N)C(=O)N[C@@H](CC(C)C)C(N)=O)[C@@H](C)CC) [compound 42] | + | + |  | 
20 | 17 (A[AllylGly]IGRL-NH2; N-terminus assumed; SMILES C=CC[C@H](NC(=O)[C@H](C)N)C(=O)N[C@H](C(=O)NCC(=O)N[C@@H](CCCNC(=N)N)C(=O)N[C@@H](CC(C)C)C(N)=O)[C@@H](C)CC) [compound 17] | − | − |  | 
21 | 86 (F[AllylGly]IGRK-NH2; N-terminus assumed; SMILES C=CC[C@H](NC(=O)[C@@H](N)Cc1ccccc1)C(=O)N[C@H](C(=O)NCC(=O)N[C@@H](CCCNC(=N)N)C(=O)N[C@@H](CCCCN)C(N)=O)[C@@H](C)CC) [compound 86] | + | − |  | 
22 | 13 (G[AllylGly]IGRL; not fully specified; printed as Gly−AllylGly−Ile−Gly−Arg−Leu−NR2) [compound 13] | − | − |  | 
23 | 83 (F[AllylGly]IGRS-NH2; N-terminus assumed; SMILES C=CC[C@H](NC(=O)[C@@H](N)Cc1ccccc1)C(=O)N[C@H](C(=O)NCC(=O)N[C@@H](CCCNC(=N)N)C(=O)N[C@@H](CO)C(N)=O)[C@@H](C)CC) [compound 83] | − | − |  | 
